17 compounds from patent publication US20260183274A1, “PDK1 REGULATORY COMPOUND AND COMPOSITION CONTAINING THE SAME” (PROVIBIO CO., LTD., priority 2024, published 2026) can be followed below.

The subject of series [1] is Human B Lymphocyte cell line, SU-DHL-8. As to the kind of experiment: Relative cell viability CCK-8, SU-DHL-8. It is filed as cell-based. As to conditions: for Relative cell viability (%), SU-DHL-8: human, 48 h. On the procedure:
Human-derived B lymphoma cell line SU-DHL-8 (Cat. #CRL-2961) purchased from ATCC was cultured in RPMI-1640 medium containing 10% FBS, 100 U/mL penicillin, and 100 μg/mL streptomycin.
The cell culture medium was then harvested, centrifuged at 1,300 rpm for 5 minutes, and the supernatant was removed. The cells were resuspended in the same medium and dispensed into a 96-well plate (Costar 96-well cell culture plate, Corning) at 90 μL per well, resulting in the conditions specified in Table 5.
Then, 10 μL of CCK-8 was added to each well, and the plates were incubated again at 37° C. in a 5% CO2 incubator for 4 hours.
In other words, when the survival rate of untreated cells (DMSO) is set at 100%, the relative cell survival rate in each group treated with the drug at different concentrations is indicated.

Series [2] concerns T cells isolated from mouse spleens. Description: T cell proliferation inhibition (CFSE flow cytometry, anti-CD3/anti-CD28 stimulation). As to conditions: mouse spleen T cells, 3 days; for inhibition at 0.01 µM / inhibition at 0.1 µM / inhibition at 1 µM / inhibition at 10 µM / inhibition at 30 µM / inhibition at 50 µM: Mus musculus, T-cell, 72 h, read-out: Proliferation inhibition rate (%). It is filed as cell-based. The method, boiled down:
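Proliferation inhibition (%) came from flow cytometry of CFSE dilution after 3 days' culture at 37 °C with compound (10 nM, 100 nM, 1, 10, 30, 50 μM; triplicate wells). Cells were magnetically purified T cells from C57BL/6 mouse spleens, 2×10^5 per well, stimulated with 0.5 μg/mL each anti-CD3 and anti-CD28.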
For orientation: In flow cytometry, cells or beads pass a laser one at a time.

Usually viability stands for a per cent measure of how many cells are alive, often set against a control. Consider `Cl.Nc1ncccc1C(=O)NCCCCCCCCCCCF` [Compound 71, 3-(11-fluoro-undecylcarbamoyl)-pyridin-2-yl-ammonium chloride], for which the viability at 50 µM in series [1] (Homo sapiens, SU-DHL-8, 48 h, read-out: Relative cell viability (%), SU-DHL-8, 50 μM, 48 hours, untreated (DMSO) = 100%) turned out to be 0.75%. Besides, the “Relative cell viability (%), SU-DHL-8” value amounted to 5.57% in series [1] (1 µM), 4.05% in series [1] (10 µM) and 2.04% in series [1] (30 µM).

Turning to `Nc1ncccc1C(=O)NCCCCCCCCCCCCN1CCC(F)CC1` [Compound 115, 2-amino-N-(12-(4-fluoropiperidin-1-yl)dodecyl)nicotinamide], the inhibition at 0.01 µM in series [2] (compound 10 nM) was -11.4%. The inhibition at 0.1 µM in series [2] (compound 100 nM) worked out at 100%. The inhibition at 1 µM in series [2] (compound 1 μM) amounted to 100%. The inhibition at 10 µM in series [2] (compound 10 μM) stood at 100%. Also, in series [2] (compound 30 μM), the inhibition at 30 µM is 100%. In addition, in series [2] (compound 50 μM), the inhibition at 50 µM was determined as 100%.

In the case of `CCOc1cc(C(C)(C)C)ccc1C(=O)NCCCCCCCCCCCCN1CCN(C)CC1` [Compound 216, 4-(tert-butyl)-2-ethoxy-N-(12-(4-methylpiperazin-1-yl)dodecyl)benzamide], the inhibition at 0.01 µM in series [2] (compound 10 nM) worked out at 2.03%. Also, the inhibition at 0.1 µM in series [2] (compound 100 nM) was 2.32%. In addition, the inhibition at 1 µM in series [2] (compound 1 μM) stood at 13%. The inhibition at 10 µM in series [2] (compound 10 μM) was 100%. Moreover, the inhibition at 30 µM in series [2] (compound 30 μM) came to 100%. Further, in series [2] (compound 50 μM), the inhibition at 50 µM came to 100%.

As to `Nc1ncccc1C(=O)NCCCCCCCCCCCCNC1CCOC1` (stereo not drawn) [Compound 128, 2-amino-N-(12-((tetrahydrofuran-3-yl)amino)dodecyl) nicotinamide], the “Proliferation inhibition rate (%)” value in series [2] (compound 10 nM) was −7.16%; in series [2] (compound 100 nM) it was 100.00%; in series [2] (compound 1 μM) it was 100.00%; in series [2] (compound 10 μM) it was 100.00%; in series [2] (compound 30 μM) it was 100.00%; in series [2] (compound 50 μM), 100.00%.

As to `Nc1ncccc1C(=O)NCCCCCCCCCCCCN1CCC(O)CC1` [Compound 48, 2-Amino-N-(12-(4-hydroxypiperidin-1-yl)dodecyl) nicotinamide], the “Proliferation inhibition rate (%)” value in series [2] (compound 10 nM, listed as PBK-2025-012, 0.01 µM) is −18.31%; in series [2] (compound 100 nM), 100.00%; in series [2] (compound 1 μM) it was 100.00%; in series [2] (compound 10 μM), 100.00%; in series [2] (compound 30 μM), 100.00%; in series [2] (compound 50 μM), 100.00%.

Turning to `CC(C)(C)OC(=O)N1CCN(CCCCCCCCCCCCNC(=O)c2cccnc2N)CC1` [Compound 111, tert-butyl-4-(12-(2-aminonicotinamido)dodecyl) piperazine-1-carboxylate], the “Proliferation inhibition rate (%)” value in series [2] (compound 10 nM) was determined as 0.00%; in series [2] (compound 100 nM) it was 100.00%; in series [2] (compound 1 μM), 100.00%; in series [2] (compound 10 μM), 100.00%; in series [2] (compound 30 μM) it was 100.00%; in series [2] (compound 50 μM), 100.00%.

As for `Nc1ncccc1C(=O)NCCCCCCCCCCCCN1CCC2(CC1)CC2` [Compound 108, N-(12-(6-Azaspiro[2.5]octan-6-yl)dodecyl)-2-aminonicotinamide], in series [2] (compound 10 nM), the inhibition at 0.01 µM amounted to 0.88%. For the same compound, in series [2] (compound 100 nM), the inhibition at 0.1 µM came out at 28.5%. In series [2] (compound 1 μM), the inhibition at 1 µM worked out at 100%. Moreover, the inhibition at 10 µM in series [2] (compound 10 μM) came out at 100%. In addition, the inhibition at 30 µM in series [2] (compound 30 μM) stood at 100%. Also, in series [2] (compound 50 μM), the inhibition at 50 µM amounted to 100%.

As to `COc1ncccc1C(=O)NCCCCCCCCCCCCN1CCN(C)CC1` [Compound 200, 2-Methoxy-N-(12-(4-methylpiperazin-1-yl)dodecyl)nicotinamide], the inhibition at 0.01 µM in series [2] (compound 10 nM) was determined as 0%. Further, the inhibition at 0.1 µM in series [2] (compound 100 nM) came out at 0%. Also, the inhibition at 1 µM in series [2] (compound 1 μM) turned out to be 0%. For the same compound, the inhibition at 10 µM in series [2] (compound 10 μM) amounted to 80%. Besides, the inhibition at 30 µM in series [2] (compound 30 μM) stood at 100%. In series [2] (compound 50 μM), the inhibition at 50 µM was determined as 100%.

With `Nc1ncccc1C(=O)NCCCCCCCCCCCCn1ccc2ccc(I)cc21` [Compound 106, 2-Amino-N-(12-(6-iodo-1H-indol-1-yl)dodecyl)nicotinamide], the inhibition at 0.01 µM in series [2] (compound 10 nM) turned out to be 0.44%. Further, in series [2] (compound 100 nM), the inhibition at 0.1 µM is -1.9%. For the same compound, in series [2] (compound 1 μM), the inhibition at 1 µM was 0.44%. The inhibition at 10 µM in series [2] (compound 10 μM) worked out at 100%. For the same compound, the inhibition at 30 µM in series [2] (compound 30 μM) came to 100%. The inhibition at 50 µM in series [2] (compound 50 μM) turned out to be 100%.

Consider `Cc1c(Cl)cccc1C(=O)NCCCCCCCCCCCCN1CCN(C)CC1` [Compound 219, 3-Chloro-2-methyl-N-(12-(4-methylpiperazin-1-yl)dodecyl)benzamide], for which the inhibition at 0.01 µM in series [2] (compound 10 nM) was -5.37%. For the same compound, the inhibition at 0.1 µM in series [2] (compound 100 nM) was determined as 2.18%. The inhibition at 1 µM in series [2] (compound 1 μM) was 3.48%. Further, the inhibition at 10 µM in series [2] (compound 10 μM) turned out to be 66.5%. The inhibition at 30 µM in series [2] (compound 30 μM) stood at 100%. Further, the inhibition at 50 µM in series [2] (compound 50 μM) came to 100%.

Turning to `CCOC(=O)C1CCCN(CCCCCCCCCCCCNC(=O)c2cccnc2N)C1` (stereo not drawn) [Compound 92, ethyl 1-(12-(2-aminonicotinamido)dodecyl)piperidine-3-carboxylate], in series [2] (compound 10 nM), the inhibition at 0.01 µM is -9.65%. For the same compound, in series [2] (compound 100 nM), the inhibition at 0.1 µM amounted to 100%. The inhibition at 1 µM in series [2] (compound 1 μM) amounted to 100%. In series [2] (compound 10 μM), the inhibition at 10 µM worked out at 100%. Besides, the inhibition at 30 µM in series [2] (compound 30 μM) amounted to 100%. Besides, the inhibition at 50 µM in series [2] (compound 50 μM) amounted to 100%.

As to `CN1CCN(CCCCCCCCCCCCNC(=O)c2ccnc(Cl)c2Cl)CC1` [Compound 198, 2,3-Dichloro-N-(12-(4-methylpiperazin-1-yl)dodecyl)isonicotinamide], the inhibition at 0.01 µM in series [2] (compound 10 nM) was determined as 5.35%. In series [2] (compound 100 nM), the inhibition at 0.1 µM stood at 9.41%. Further, the inhibition at 1 µM in series [2] (compound 1 μM) came out at 20.1%. For the same compound, the inhibition at 10 µM in series [2] (compound 10 μM) worked out at 100%. Moreover, in series [2] (compound 30 μM), the inhibition at 30 µM amounted to 100%. The inhibition at 50 µM in series [2] (compound 50 μM) was determined as 100%.

As to `CC1(C)CCN(CCCCCCCCCCCCNC(=O)c2cccnc2N)CC1` [Compound 102, 2-Amino-N-(12-(4,4-dimethylpiperidin-1-yl)dodecyl)nicotinamide], the inhibition at 0.01 µM in series [2] (compound 10 nM) was -4.53%. Also, the inhibition at 0.1 µM in series [2] (compound 100 nM) came to 100%. Besides, the inhibition at 1 µM in series [2] (compound 1 μM) was found to be 100%. The inhibition at 10 µM in series [2] (compound 10 μM) stood at 100%. Also, in series [2] (compound 30 μM), the inhibition at 30 µM amounted to 100%. The inhibition at 50 µM in series [2] (compound 50 μM) came to 100%.

As for `CN1CCN(CCCCCCCCCCCCNC(=O)c2cccnc2O)CC1` [Compound 210, 2-Hydroxy-N-(12-(4-methylpiperazin-1-yl)dodecyl)nicotinamide], in series [2] (compound 10 nM), the inhibition at 0.01 µM is -4.34%. Moreover, the inhibition at 0.1 µM in series [2] (compound 100 nM) was -3.18%. For the same compound, the inhibition at 1 µM in series [2] (compound 1 μM) was 2.75%. The inhibition at 10 µM in series [2] (compound 10 μM) came out at 42.8%. Also, the inhibition at 30 µM in series [2] (compound 30 μM) stood at 100%. In series [2] (compound 50 μM), the inhibition at 50 µM stood at 100%.

In the case of `CN1CCN(CCCCCCCCCCCCNC(=O)c2cnccc2N)CC1` [Compound 212, 4-Amino-N-(12-(4-methylpiperazin-1-yl)dodecyl)nicotinamide], the “Proliferation inhibition rate (%)” value in series [2] (compound 10 nM, listed as KP-64, 0.01 µM) is −2.89%; in series [2] (compound 100 nM, listed as KP-64, 0.1 µM) it was −3.91%; in series [2] (compound 1 μM, listed as KP-64, 1 µM) it was −4.34%; in series [2] (compound 10 μM, listed as KP-64, 10 µM) it was 20.55%; in series [2] (compound 30 μM, listed as KP-64, 30 µM), 71.78%.

Regarding `CN(CCCCCCCCCCCCNC(=O)c1cccnc1N)C1CCCCC1` [Compound 34, 2-Amino-N-(12-(cyclohexyl(methyl)amino)dodecyl) nicotinamide], the “Proliferation inhibition rate (%)” value in series [2] (compound 10 nM) is 2.08%; in series [2] (compound 100 nM), 100.00%; in series [2] (compound 1 μM) it was 100.00%; in series [2] (compound 10 μM), 100.00%; in series [2] (compound 30 μM) it was 100.00%; in series [2] (compound 50 μM), 100.00%.

For `CN1CCN(CCCCCCCCCCCCNC(=O)c2ccccc2-c2ncc[nH]2)CC1` [Compound 192, 2-(1H-imidazol-2-yl)-N-(12-(4-methylpiperazin-1-yl)dodecyl)benzamide], the inhibition at 0.01 µM in series [2] (compound 10 nM) was -3.25%. Besides, the inhibition at 0.1 µM in series [2] (compound 100 nM) was -0.84%. In addition, the inhibition at 1 µM in series [2] (compound 1 μM) turned out to be 0.96%. Moreover, in series [2] (compound 10 μM), the inhibition at 10 µM is 99.8%. Further, the inhibition at 30 µM in series [2] (compound 30 μM) turned out to be 100%. Also, in series [2] (compound 50 μM), the inhibition at 50 µM is 100%.
